This test concerns the target T1, ALDH-40 (Bacillus subtilis, UniProt P94358).
T1 sequence (P94358 1-485): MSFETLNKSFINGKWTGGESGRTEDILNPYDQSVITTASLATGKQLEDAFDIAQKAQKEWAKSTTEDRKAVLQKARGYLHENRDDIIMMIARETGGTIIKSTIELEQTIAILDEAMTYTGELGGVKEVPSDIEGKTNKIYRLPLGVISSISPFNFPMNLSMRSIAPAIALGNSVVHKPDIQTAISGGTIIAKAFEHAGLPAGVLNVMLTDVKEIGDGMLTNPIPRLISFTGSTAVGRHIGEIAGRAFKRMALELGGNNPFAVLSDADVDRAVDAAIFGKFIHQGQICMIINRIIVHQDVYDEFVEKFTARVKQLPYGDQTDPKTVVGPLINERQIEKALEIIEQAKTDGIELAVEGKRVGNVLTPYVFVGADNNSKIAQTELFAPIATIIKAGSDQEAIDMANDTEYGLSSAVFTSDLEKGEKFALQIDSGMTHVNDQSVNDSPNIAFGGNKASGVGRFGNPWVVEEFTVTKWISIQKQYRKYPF
Put plainly: HPLC, Michaelis-Menten fit. The conditions noted are these: 0.5 μM enzyme, NAD+ 2 mM, 50 mM Tris-HCl pH 8.0, 30 °C. Format: biochemical.

As usually defined, the Km is the concentration of substrate that gives half-maximal velocity. As for cinnamaldehyde [2a], the Km came to 10 ± 2.7 mM.
